Assay results taken from patent publication US8008354B2, “Death receptor sensitizing compounds and methods of use therefor” (Burnham Institute for Medical Research, priority 2006, dated 2011).

Legend:
[1] = tested on: PC-3, DU-145, LNCaP, T47D, MB-MDA-468 and OVCAR-3 cells; assay: MTS viability of additional malignant cell lines under adherent conditions with or without CH-11; assay type: cell-based
Method: FIG. 14. Tumor cell sensitivity to anoikis correlates with sensitivity to Fas-mediated apoptosis. PC-3, DU-145, and LNCaP prostate, T47D and MB-MDA-468 breast, and OVCAR-3 ovarian cancer cells were cultured under adherent conditions with increasing concentrations of 5809354, in the presence or absence of Fas-activating antibody (CH-11, 100 ng/mL). Thirty hours after incubation, cell viability was determined using the MTS assay. Cell lines were also cultured under suspension conditions in the presence or absence of 5809354. Thirty hours after incubation, equal volumes of suspension-cultured cells were replated in a colony formation assay. Data represents the mean±SEM percent of viable cells or colonies compared to untreated controls.
Cell viability apoptosis, colony formation, and caspase activation assays. Cell viability was assessed using the MTS reduction assay (Promega, Madison, Wis., USA) according to the manufacturer's protocols and as described in Schimmer et al. (2006). Apoptosis was measured by flow cytometry to detect cell surface annexin V expression and propidium iodide (PI) uptake (Biovision, Mountain View, Calif., USA) as described in Carter et al. (2005). […] Clonogenic growth after suspension culture was measured using colony formation assays. […] Colonies were fixed, stained with methylene blue, and counted. […]

[2] = tested on: E1A-transformed wild-type (WT) and caspase 8-/- MEFs; assay: MTS viability of wild-type and caspase 8-/- MEFs in suspension conditions; assay type: cell-based; settings: ten hours
Method: FIG. 15. 5809354 sensitizes cells to anoikis through a caspase 8 dependent mechanism. (A) PPC-1 cells (5×10^4) were cultured under suspension conditions overnight and then treated with 5809354 in the presence or absence of the pan-caspase inhibitor z-VAD-fink (100 μM). Thirty hours after incubation, anoikis was determined by flow cytometry to detect cell surface annexin V expression and PI uptake. Data represents the mean±SEM percent of viable cells or colonies compared to untreated controls. (B) PPC-1 cells (5×10^4) were cultured in suspension conditions overnight and then treated with 5809354 (60 μM). At increasing times after treatment, caspase activation was detected with FITC-labeled peptides that bind preferentially and irreversibly to caspase 3/7, 8, or 9. Caspase activation was monitored by flow cytometry to quantify the percentage of fluorescently labeled cells. […] At increasing times after incubation, total cellular protein was isolated and analyzed by SDS-PAGE immunoblotting using anti-caspase 8 and anti-actin antibodies. * indicates cleaved caspase 8. […] Thirty hours after incubation, apoptosis was measured by cell surface annexin V expression and PI uptake. […] Ten hours after incubation, cell viability was measured using the MTS assay. […] EGFP expression and nuclear morphology were analyzed by fluorescence microscopy. […]

## 4-(4-chloro-2-methylphenoxy)-N-hydroxybutanamide [compound 5809354]
[1]; LNCaP or MB-MDA-468 cells
  sensitization to CH-11: did not sensitize
[1]; PC-3, DU-145, T47D and OVCAR-3 cell lines, CH-11 100 ng/mL
  sensitization to CH-11-induced apoptosis: sensitized
[2]
  anoikis of caspase 8-deficient MEFs compared to wild-type: resistant
